Patent EP0555537B1, “Endothelin antagonists” (BANYU PHARMACEUTICAL CO., LTD., priority 1991, dated 1993)
Numbered stars: 1 amine (or outer) side, 2 acyl side, 3 side chain; on linkers, the order of the positions; unused ones are H or OH. Square brackets hold non-standard residues; d marks the D form. Peptide text beside a SMILES is read from it. * marks the point of attachment. dNle = CCCC[C@@H](N)C(=O)O; Piperidide = C1CCN(*)CC1; Pyrrolidide = C1CCN(*)C1; dAbu = CC[C@@H](N)C(=O)O; Boc = CC(C)(C)OC(=O)*; CO = O=C([*:1])[*:2]; NHtBu = CC(C)(C)N*; Moc = COC(=O)*

Molecular target: T1, ETB receptor (Sus scrofa, UniProt P35463)
T1 construct: ETB receptors of porcine cerebellum membrane suspension used in the present experiments; from tissue; host or cells: porcine cerebellum membrane fraction
T1 sequence (P35463 27-443): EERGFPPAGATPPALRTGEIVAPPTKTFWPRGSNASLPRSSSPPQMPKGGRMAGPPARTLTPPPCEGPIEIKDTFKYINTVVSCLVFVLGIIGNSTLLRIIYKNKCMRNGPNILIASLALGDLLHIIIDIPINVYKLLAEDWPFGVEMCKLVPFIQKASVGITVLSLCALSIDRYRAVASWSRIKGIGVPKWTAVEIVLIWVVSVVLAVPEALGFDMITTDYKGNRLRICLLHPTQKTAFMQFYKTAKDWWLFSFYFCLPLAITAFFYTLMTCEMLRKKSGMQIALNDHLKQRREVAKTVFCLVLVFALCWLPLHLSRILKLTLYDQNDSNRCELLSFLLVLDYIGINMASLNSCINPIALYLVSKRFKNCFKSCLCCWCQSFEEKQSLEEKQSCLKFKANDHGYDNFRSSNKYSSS
Test: Endothelin binding inhibition test (^125I-endothelin-1, porcine cerebellum membrane suspension)
Settings: 1.1 µM of the test compound, triplicate
Experimental: The cerebellum of porcine was homogenized in a buffer solution of 10 mM MOPS, pH 7.4, at 4°C by a polytron. To the homogenate, sucrose was added to a concentration of 20%, and the mixture was centrifuged at 1,000 x g for 15 minutes, and the supernatant was further centrifuged at 10,000 x g for 15 minutes. The supernatant thereof was further centrifuged at 90,000 x g for 40 minutes. The membrane precipitate thereby obtained was suspended in a buffer solution of 5 mM HEPES/Tris, pH 7.4, at a concentration of 3.3 mg/ml.
Then, 16 µl of this membrane suspension was added to 340 µl of 50 mM tris/HCl buffer, pH 7.4, containing […] calcium chloride, 10 µM magnesium chloride, 0.1 mM PMSF, 1 µM pepstatin A, 2 µM leupeptin, 1 mM 1,10-phenanthroline and 0.1% bovine serum albumin. To this suspension, 4 µl of (A) endothelin-1 (for nonspecific binding; 0.2 µM as the final concentration), (B) buffer solution A (for total control binding), or (C) a test compound (1.1 µM as the final concentration), was added. Further, to each suspension, 40 µl of ^125I-endothelin-1 (12000-18000 cpm) was added. These mixtures were incubated at 25°C for 4 hours, then subjected to filtration on a glass filter GF/C and then washed with 5 mM HEPES/Tris, pH 7.4, containing 0.3% bovine serum albumin. Then, the radioactivity trapped by the glass filter was measured, and the ^125I-endothelin-1 binding inhibition D (%) at 1.1 µM of the test compound was determined by the following equation. D(%) = 100 -((C) - (A))/((B) - (A))× 100 [formula]
Each test was performed in triplicate.
The test compounds are indicated by compound Nos.

Question: Which inhibition at 1.1 µM does the source give for `CCCC[C@@H](NC(=O)[C@@H](Cc1cn(C(=O)OC)c2ccccc12)NC(=O)[C@H](CC(C)C)NC(=O)N1CCCC1)C(=O)O` [Compound 11] ({Pyrrolidide-CO}-Leu-[dW](Moc)-[dNle]-OH) here?
Answer: 73%

Question: How did the inhibition at 1.1 µM turn out when `CCCC[C@@H](NC(=O)[C@@H](Cc1cn(C(=O)OC)c2ccccc12)NC(=O)[C@H](CC(C)C)NC(=O)N1CCCCCC1)C(=O)O` [Compound 9] was run?
Answer: 99%

Question: How did the inhibition at 1.1 µM turn out when `CCCC[C@@H](NC(=O)[C@@H](Cc1c(Cl)[nH]c2ccccc12)NC(=O)[C@H](CC(C)C)NC(=O)N1C(C)CCCC1C)C(=O)O` (some centres unmarked) [Compound 67] was run?
Answer: 97%

Question: With `CCCC[C@@H](NC(=O)[C@@H](Cc1c(Cl)[nH]c2ccccc12)NC(=O)[C@H](CC(C)C)NC(=O)N1CCCCCC1)C(=O)O` [Compound 68] as the compound, how does the inhibition at 1.1 µM read?
Answer: 93%

Question: `CCCC[C@@H](NC(=O)[C@@H](Cc1cn(C(=O)OC)c2ccccc12)NC(=O)[C@H](CC(C)C)NC(=O)Nc1ccccc1Cl)C(=O)O` [Compound 1] was tested. Which inhibition at 1.1 µM did it give?
Answer: 99%

Question: Which inhibition at 1.1 µM does the source give for `CCCC[C@@H](NC(=O)[C@@H](Cc1cn(C(=O)OC)c2ccccc12)NC(=O)[C@H](CC(C)C)NC(=O)N1CCCCCCC1)C(=O)O` [Compound 29] here?
Answer: 99%

Question: Which inhibition at 1.1 µM does the source give for `CCCC[C@@H](NC(=O)[C@@H](Cc1cn(C(=O)OC)c2ccccc12)NC(=O)[C@H](CC(C)C)NC(=O)N(CCC)C1CCCC1)C(=O)O` [Compound 17] here?
Answer: 95%

Question: `CCCC[C@@H](NC(=O)[C@@H](Cc1cn(C(=O)OC)c2ccccc12)NC(=O)[C@H](CC(C)C)NC(=O)N1CCCCC1)C(=O)O` [Compound 12] ({Piperidide-CO}-Leu-[dW](Moc)-[dNle]-OH) was tested. Which inhibition at 1.1 µM did it give?
Answer: 96%

Question: `CCCC[C@@H](NC(=O)[C@@H](Cc1cn(C(=O)OC)c2ccccc12)NC(=O)[C@H](CC(C)C)NC(=O)N1CCSC1)C(=O)O` [Compound 13] was tested. Which inhibition at 1.1 µM did it give?
Answer: 72%

Question: `CC[C@@H](NC(=O)[C@@H](Cc1cn(C(=O)OC)c2ccccc12)NC(=O)[C@H](CC(C)C)NC(=O)OC(C)(C)C)C(=O)O` [Compound 26] (Boc-Leu-[dW](Moc)-[dAbu]-OH) was tested. Which inhibition at 1.1 µM did it give?
Answer: 71%

Question: Which inhibition at 1.1 µM does the source give for `CCCC[C@@H](NC(=O)[C@@H](Cc1cn(C(=O)OC)c2ccccc12)NC(=O)[C@H](CC(C)C)NC(=O)N1CCCCCCC1)C(=O)OC(C)(C)C` [Compound 28] here?
Answer: 92%

Question: With `CCCC[C@@H](NC(=O)[C@@H](Cc1cn(C(=O)OC)c2ccccc12)NC(=O)[C@H](CC(C)C)NC(=O)NC(C)(C)C)C(=O)O` [Compound 27] ({NHtBu-CO}-Leu-[dW](Moc)-[dNle]-OH) as the compound, how does the inhibition at 1.1 µM read?
Answer: 91%

Question: `CCCC[C@@H](NC(=O)[C@@H](Cc1cn(C(=O)OC)c2ccccc12)NC(=O)[C@H](CC(C)C)NC(=O)N(C(C)C)C(C)C)C(=O)O` [Compound 14] was tested. Which inhibition at 1.1 µM did it give?
Answer: 99%

Question: For `CCCC[C@@H](NC(=O)[C@@H](Cc1cn(C(=O)OC)c2ccccc12)NC(=O)[C@H](CC(C)C)NC(=O)NC12CC3CC(CC(C3)C1)C2)C(=O)O` [Compound 25], which inhibition at 1.1 µM is on record?
Answer: 97%

Question: How did the inhibition at 1.1 µM turn out when `CCCC[C@@H](NC(=O)[C@@H](Cc1cn(C(=O)OC)c2ccccc12)NC(=O)[C@H](CC(C)C)NC(=O)N1CCSCC1)C(=O)O` [Compound 10] was run?
Answer: 89%

Question: `CCCC[C@@H](NC(=O)[C@@H](Cc1cn(C(=O)OC)c2ccccc12)NC(=O)[C@H](CC(C)C)NC(=O)Nc1c(Cl)cccc1Cl)C(=O)O` [Compound 3] was tested. Which inhibition at 1.1 µM did it give?
Answer: 94%

Question: How did the inhibition at 1.1 µM turn out when `CCCC[C@@H](NC(=O)[C@@H](Cc1cn(C(=O)OCC)c2ccccc12)NC(=O)[C@H](CC(C)C)NC(=O)Nc1ccccc1Cl)C(=O)O` [Compound 2] was run?
Answer: 97%
